The results in this text go back to patent US11865103B2, “Methods of treating disorders associated with glycosylation defective proteins” (CASE WESTERN RESERVE UNIVERSITY, priority 2016, dated 2024).

Molecules are shown by their SMILES.

For this series, the system named is hCLRN1^N48K-YFP; clrn1^+/+ larvae. Kind of series: Larval survival/lethality by TG or ART dose and treatment duration. Format: in vivo, zebrafish. Set-up: key: ‘S’ = Surviving; ‘L’ = Lethal. On the procedure: Thapsigargin (TG, 1 mg, Sigma-Aldrich, #T9033) stock in 100% DMSO was diluted in E3 medium to make the required final concentration of the drug. Five different concentrations that were earlier reported to induce ER stress and are non-toxic or lower lethal dose (LD50) in the zebrafish (0.1, 0.5, 1.0, 2.5, 5 μM concentrations) were used in this study. A total of 25 larvae per dosage and treatment duration from the genotypes hCLRN1^N48K-YFP; clrn1^+/+ and hCLRN1-YFP; clrn1^+/+, no older than 72 hours post fertilization (hpf) at the start of the experiment, were placed in a well of 12-well uncoated culture plate (BD Falcon, Canaan, CT). For ER stress induction, larvae were incubated in different dosage of TG from 1 hr to overnight at 28.5° C., followed by three times wash with E3 medium at 28.5° C. (Table 2) and hair cells from the hCLRN1^N48K-YFP; clrn1^+/+ and hCLRN1-YFP; clrn1^+/+ lines were examined for the respective protein distribution pattern in the hair cell bundle and the cell body. Live confocal images of ‘O’ and ‘ML1’ neuromasts per larvae were capture using Leica SP2 confocal microscope with 40× oil immersion objective. Unadjusted 1 micron middle section images of four hair bundles per ML1 neuromast of larvae from TG treated and untreated groups were analyzed using Image J software version v. 1.48 (FIG. 4). The hair bundle trafficked amount of hCLRN1^N48K protein corresponds to the change in YFP intensity in the hair bundle in the TG treated larvae. Quantification of YFP fluorescence intensity was carried out as described in the previous experiment for unconventional trafficking of hCLRN1^N48K-YFP by hGRASP55 cargos. […] Student's t-test was used to confirm the observed changes in the YFP intensity in the hair bundles of TG treatment compared to untreated hCLRN1^N48K-YFP; clrn1^+/+ larvae, is significant (FIG. 4J).
Arthemisinin (ART, 100 mg, Sigma-Aldrich, #361593) in 100% DMSO was diluted in E3 medium to make the final concentration. Five different concentrations within the range of reported ER stress inducing level in the zebrafish (0.1, 0.25, 0.4, 0.5, and 1 μM concentrations) were used in this study. A total of 25 larvae, no older than 72 hpf at the start of the experiment, were placed in a well of 12-well uncoated culture plate (BD 35 Falcon, Canaan, CT). For ER stress induction, larvae were exposed in different dosage of ART for different duration at 28.5° C. (Table 3) and washed three times with E3 medium, and hair cells from the hCLRN1-YFP; clrn1^+/+ larvae and hCLRN1^N48K-YFP; clrn1^+/+ larvae were examined for the respective protein distribution pattern in the hair cell bundle and the cell body. Live confocal Z-stack images of otic ‘O’ and middle ‘ML’ neuromasts per larvae of hCLRN1-YFP; clrn1^+/+ larvae and hCLRN1^N48K-YFP; clrn1^+/+ genotypes from the untreated group in the E3 medium, 0.01% DMSO treatment group and ART treatment group were capture using Leica SP2 confocal microscope at 40× oil immersion objective. Hair cells from 2 otic (0) and 2 middle (ML) neuromasts per larvae were examined for the change in YFP intensity in the hair bundle and cell body. From the captured confocal images of these neuromast hair cells, unadjusted 1 micron middle section images of 4 mature hair bundles from ML1 neuromast per larvae were considered for the YFP intensity quantification in unadjusted ROI covering the middle section of each hair bundles using the imageJ software. […] The hair bundle trafficked amount of hCLRN1^N48K protein corresponds to the change in YFP intensity in the hair bundle in the ART treated larvae. Quantification of YFP fluorescence intensity was carried out as described in the previous experiment for unconventional trafficking of hCLRN1^N48K-YFP by hGRASP55 cargos. Student's t-test was used to confirm the observed changes in the YFP intensity in the hair bundles of ART treatment compared to untreated and TG treated hCLRN1^N48K-YFP; clrn1^+/+ larvae, is significant (FIG. 4J).

Turning to `C[C@@H]1CC[C@H]2[C@@H](C)C(=O)O[C@@H]3O[C@@]4(C)CC[C@@H]1[C@]32OO4` [ART, Artemisinin], the Larvae survival result by setting is: (ART 0.4 μM, exposure 8 h) “L”; (ART 0.4 μM, exposure 10 h) “L”; (ART 0.5 μM, exposure 1 h) “L”; (ART 0.5 μM, exposure 2 h) “L”; (ART 0.5 μM, exposure 4 h) “L”; (ART 0.5 μM, exposure 6 h) “L”. Further, the Larvae survival result (ART 0.5 μM, exposure 8 h) is on record as “L”; the Larvae survival entry (ART 0.5 μM, exposure 10 h) is recorded as “L”; the Larvae survival entry (ART 1.0 μM, exposure 1 h) is listed as “L”; the Larvae survival result (ART 1.0 μM, exposure 2 h) was “L”; the Larvae survival entry (ART 1.0 μM, exposure 4 h) is on record as “L”; the Larvae survival result (ART 1.0 μM, exposure 6 h) is recorded as “L”. Also, the Larvae survival entry reads like this: (ART 1.0 μM, exposure 8 h) “L”; (ART 1.0 μM, exposure 10 h) “L”.
Regarding `C/C=C(/C)C(=O)O[C@H]1C(C)=C2[C@H]([C@@H]1OC(=O)CCCCCCC)[C@@](C)(OC(C)=O)C[C@H](OC(=O)CCC)[C@@]1(O)[C@H]2OC(=O)[C@@]1(C)O` [TG, Thapsigargin], the Larvae survival result is recorded as “S” (TG 0.1 μM, exposure 1 h); “S” (TG 0.1 μM, exposure 2 h); “S” (TG 0.1 μM, exposure 3 h); “S” (TG 0.1 μM, exposure 4 h); “S” (TG 0.1 μM, exposure 8 h); “S” (TG 0.1 μM, exposure 16 h). Moreover, the Larvae survival entry is “S” (TG 0.5 μM, exposure 1 h); “S” (TG 0.5 μM, exposure 2 h); “S” (TG 0.5 μM, exposure 3 h); “S” (TG 0.5 μM, exposure 4 h); “S” (TG 0.5 μM, exposure 8 h); “L” (TG 0.5 μM, exposure 16 h). Besides, the Larvae survival result runs as follows: (TG 1.0 μM, exposure 1 h) “S”; (TG 1.0 μM, exposure 2 h) “S”; (TG 1.0 μM, exposure 3 h) “S”; (TG 1.0 μM, exposure 4 h) “S”; (TG 1.0 μM, exposure 8 h) “L”; (TG 1.0 μM, exposure 16 h) “L”. The Larvae survival result runs as follows: (TG 2.5 μM, exposure 1 h) “L”; (TG 2.5 μM, exposure 2 h) “L”; (TG 2.5 μM, exposure 3 h) “L”; (TG 2.5 μM, exposure 4 h) “L”; (TG 2.5 μM, exposure 8 h) “L”; (TG 2.5 μM, exposure 16 h) “L”. Also, the Larvae survival result is, setting by setting: (TG 5.0 μM, exposure 1 h) “L”; (TG 5.0 μM, exposure 2 h) “L”; (TG 5.0 μM, exposure 3 h) “L”; (TG 5.0 μM, exposure 4 h) “L”; (TG 5.0 μM, exposure 8 h) “L”; (TG 5.0 μM, exposure 16 h) “L”.
